Results from publication PMC10176470, “Engaging a Non-catalytic Cysteine Residue Drives Potent and Selective Inhibition of Caspase-6” (Journal of the American Chemical Society, 2023).

How the values were obtained:
Format in all cases: cell-based
[1] = biological target: proteins of HEK293T cells transiently overexpressing caspase-6 (Homo sapiens, UniProt P38606); conditions: exp_ref Probe; protein ATP6V1A (P38606); analysis C6
[2] = biological target: proteins of HEK293T cells transiently overexpressing caspase-6 (Homo sapiens, UniProt Q9H307); conditions: exp_ref Probe; protein PNN (Q9H307); analysis C6
[3] = biological target: proteins of HEK293T cells transiently overexpressing caspase-6 (Homo sapiens, UniProt P55884); conditions: exp_ref Probe; protein EIF3B (P55884); analysis C6
[4] = biological target: proteins of HEK293T cells transiently overexpressing caspase-6 (Homo sapiens, UniProt Q15029); conditions: exp_ref Probe; protein EFTUD2 (Q15029); analysis C6
[5] = biological target: proteins of HEK293T cells transiently overexpressing caspase-6 (Homo sapiens, UniProt P49321); conditions: exp_ref Probe; protein NASP (P49321); analysis C6
[6] = biological target: proteins of HEK293T cells transiently overexpressing caspase-6 (Homo sapiens, UniProt Q7KZF4); conditions: exp_ref Probe; protein SND1 (Q7KZF4); analysis C6
[7] = biological target: proteins of HEK293T cells transiently overexpressing caspase-6 (Homo sapiens, UniProt P62244); conditions: exp_ref Probe; protein RPS15A (P62244); analysis C6
[8] = biological target: proteins of HEK293T cells transiently overexpressing caspase-6 (Homo sapiens, UniProt Q96AE4); conditions: Probe; protein FUBP1 Q96AE4
[9] = biological target: proteins of HEK293T cells transiently overexpressing caspase-6 (Homo sapiens, UniProt Q12905); conditions: exp_ref Probe; protein ILF2 (Q12905); analysis C6
[10] = biological target: proteins of HEK293T cells transiently overexpressing caspase-6 (Homo sapiens, UniProt P62917); conditions: Probe; protein RPL8 P62917
[11] = biological target: proteins of HEK293T cells transiently overexpressing caspase-6 (Homo sapiens, UniProt O75874); conditions: exp_ref Probe; protein IDH1 (O75874); analysis C6
[12] = biological target: proteins of HEK293T cells transiently overexpressing caspase-6 (Homo sapiens, UniProt P26641); conditions: exp_ref Probe; protein EEF1G (P26641); analysis C6
[13] = biological target: proteins of HEK293T cells transiently overexpressing caspase-6 (Homo sapiens, UniProt O43143); conditions: exp_ref Probe; protein DHX15 (O43143); analysis C6
[14] = biological target: proteins of HEK293T cells transiently overexpressing caspase-6 (Homo sapiens, UniProt Q99729); conditions: Probe; protein HNRNPAB Q99729
[15] = biological target: T1, proteins of HEK293T cells transiently overexpressing caspase-6 (Homo sapiens, UniProt Q8WUM4); conditions: protein PDCD6IP (Q8WUM4); exp_ref Probe; analysis C6
T1 sequence (Q8WUM4 1-868): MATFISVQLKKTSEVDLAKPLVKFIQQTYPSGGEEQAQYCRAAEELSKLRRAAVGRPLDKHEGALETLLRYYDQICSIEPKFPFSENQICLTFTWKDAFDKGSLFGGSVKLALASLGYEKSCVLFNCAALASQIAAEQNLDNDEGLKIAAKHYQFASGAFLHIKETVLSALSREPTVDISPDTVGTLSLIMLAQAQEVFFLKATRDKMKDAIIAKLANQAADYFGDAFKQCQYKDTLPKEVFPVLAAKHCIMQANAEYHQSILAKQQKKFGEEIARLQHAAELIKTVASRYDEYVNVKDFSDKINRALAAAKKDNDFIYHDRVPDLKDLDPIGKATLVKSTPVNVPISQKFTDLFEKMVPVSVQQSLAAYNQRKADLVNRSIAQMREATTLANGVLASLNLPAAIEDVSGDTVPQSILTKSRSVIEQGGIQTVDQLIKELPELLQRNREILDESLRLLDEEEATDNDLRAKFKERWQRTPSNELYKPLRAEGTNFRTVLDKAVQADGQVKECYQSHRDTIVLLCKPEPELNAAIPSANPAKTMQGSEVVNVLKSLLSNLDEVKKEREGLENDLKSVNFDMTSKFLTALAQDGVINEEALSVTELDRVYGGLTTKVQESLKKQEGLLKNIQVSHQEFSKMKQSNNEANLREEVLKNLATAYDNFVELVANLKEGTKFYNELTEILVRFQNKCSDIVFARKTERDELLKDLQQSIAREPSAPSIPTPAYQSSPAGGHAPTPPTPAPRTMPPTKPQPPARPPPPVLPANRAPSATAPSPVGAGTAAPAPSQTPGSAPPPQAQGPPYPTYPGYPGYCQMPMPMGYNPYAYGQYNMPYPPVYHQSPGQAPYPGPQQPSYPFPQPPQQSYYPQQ

[16] = biological target: proteins of HEK293T cells transiently overexpressing caspase-6 (Homo sapiens, UniProt P07737); conditions: exp_ref Probe; protein PFN1 (P07737); analysis C6
[17] = biological target: proteins of HEK293T cells transiently overexpressing caspase-6 (Homo sapiens, UniProt Q14566); conditions: exp_ref Probe; protein MCM6 (Q14566); analysis C6
[18] = biological target: proteins of HEK293T cells transiently overexpressing caspase-6 (Homo sapiens, UniProt O75390); conditions: exp_ref Probe; protein CS (O75390); analysis C6
[19] = biological target: proteins of HEK293T cells transiently overexpressing caspase-6 (Homo sapiens, UniProt P14625); conditions: exp_ref Probe; protein HSP90B1 (P14625); analysis C6
[20] = biological target: proteins of HEK293T cells transiently overexpressing caspase-6 (Homo sapiens, UniProt P52597); conditions: Probe; protein HNRNPF P52597
Chain of proteins of HEK293T cells transiently overexpressing caspase-6 (Homo sapiens, UniProt P52597) (P52597 whole entry): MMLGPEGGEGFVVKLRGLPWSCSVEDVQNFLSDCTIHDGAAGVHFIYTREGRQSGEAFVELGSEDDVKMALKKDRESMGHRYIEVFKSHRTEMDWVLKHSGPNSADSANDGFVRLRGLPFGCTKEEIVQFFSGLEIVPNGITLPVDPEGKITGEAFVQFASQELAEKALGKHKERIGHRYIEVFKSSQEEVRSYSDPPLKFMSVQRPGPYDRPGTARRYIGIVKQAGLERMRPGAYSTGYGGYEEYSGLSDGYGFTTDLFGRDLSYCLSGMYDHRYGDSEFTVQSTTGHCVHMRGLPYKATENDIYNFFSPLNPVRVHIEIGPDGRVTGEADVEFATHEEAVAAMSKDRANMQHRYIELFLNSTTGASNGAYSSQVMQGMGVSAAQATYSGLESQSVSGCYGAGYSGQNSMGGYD

Chain of proteins of HEK293T cells transiently overexpressing caspase-6 (Homo sapiens, UniProt Q96AE4) (Q96AE4 whole entry): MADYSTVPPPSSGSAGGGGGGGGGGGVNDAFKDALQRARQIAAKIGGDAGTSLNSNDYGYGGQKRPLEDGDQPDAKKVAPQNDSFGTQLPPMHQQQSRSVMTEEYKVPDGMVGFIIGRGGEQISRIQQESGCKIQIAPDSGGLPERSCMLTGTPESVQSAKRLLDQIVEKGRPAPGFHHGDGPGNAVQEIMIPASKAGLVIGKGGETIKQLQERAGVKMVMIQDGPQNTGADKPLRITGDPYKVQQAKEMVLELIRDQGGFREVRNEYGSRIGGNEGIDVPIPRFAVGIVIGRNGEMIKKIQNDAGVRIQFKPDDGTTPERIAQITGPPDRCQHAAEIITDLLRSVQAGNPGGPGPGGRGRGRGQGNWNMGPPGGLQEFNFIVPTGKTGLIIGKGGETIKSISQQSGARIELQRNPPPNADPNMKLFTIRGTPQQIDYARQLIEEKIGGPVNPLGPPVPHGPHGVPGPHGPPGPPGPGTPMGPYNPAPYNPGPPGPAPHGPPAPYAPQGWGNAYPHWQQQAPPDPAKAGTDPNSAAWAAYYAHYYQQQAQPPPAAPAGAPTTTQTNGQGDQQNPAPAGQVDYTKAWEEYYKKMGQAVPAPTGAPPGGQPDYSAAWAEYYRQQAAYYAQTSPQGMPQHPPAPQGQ
Chain of proteins of HEK293T cells transiently overexpressing caspase-6 (Homo sapiens, UniProt Q9H307) (Q9H307 whole entry): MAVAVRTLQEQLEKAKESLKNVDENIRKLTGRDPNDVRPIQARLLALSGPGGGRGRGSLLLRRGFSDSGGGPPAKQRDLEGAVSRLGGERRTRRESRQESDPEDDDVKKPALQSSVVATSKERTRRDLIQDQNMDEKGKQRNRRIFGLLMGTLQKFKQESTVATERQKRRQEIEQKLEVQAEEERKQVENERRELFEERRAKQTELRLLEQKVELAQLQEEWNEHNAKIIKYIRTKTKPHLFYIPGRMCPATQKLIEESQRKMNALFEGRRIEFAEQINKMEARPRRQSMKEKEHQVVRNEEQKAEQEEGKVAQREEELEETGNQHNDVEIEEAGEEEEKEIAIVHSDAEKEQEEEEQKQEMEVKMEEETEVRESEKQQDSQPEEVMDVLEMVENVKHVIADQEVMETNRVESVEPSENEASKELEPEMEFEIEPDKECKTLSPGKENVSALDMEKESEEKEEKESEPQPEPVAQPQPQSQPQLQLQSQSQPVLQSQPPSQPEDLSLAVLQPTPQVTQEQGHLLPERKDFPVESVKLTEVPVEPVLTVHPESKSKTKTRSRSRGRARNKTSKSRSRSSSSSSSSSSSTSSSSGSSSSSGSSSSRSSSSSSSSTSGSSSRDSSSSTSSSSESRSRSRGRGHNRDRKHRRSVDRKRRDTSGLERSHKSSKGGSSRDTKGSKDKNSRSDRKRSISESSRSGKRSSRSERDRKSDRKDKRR
Chain of proteins of HEK293T cells transiently overexpressing caspase-6 (Homo sapiens, UniProt P38606) (P38606 whole entry): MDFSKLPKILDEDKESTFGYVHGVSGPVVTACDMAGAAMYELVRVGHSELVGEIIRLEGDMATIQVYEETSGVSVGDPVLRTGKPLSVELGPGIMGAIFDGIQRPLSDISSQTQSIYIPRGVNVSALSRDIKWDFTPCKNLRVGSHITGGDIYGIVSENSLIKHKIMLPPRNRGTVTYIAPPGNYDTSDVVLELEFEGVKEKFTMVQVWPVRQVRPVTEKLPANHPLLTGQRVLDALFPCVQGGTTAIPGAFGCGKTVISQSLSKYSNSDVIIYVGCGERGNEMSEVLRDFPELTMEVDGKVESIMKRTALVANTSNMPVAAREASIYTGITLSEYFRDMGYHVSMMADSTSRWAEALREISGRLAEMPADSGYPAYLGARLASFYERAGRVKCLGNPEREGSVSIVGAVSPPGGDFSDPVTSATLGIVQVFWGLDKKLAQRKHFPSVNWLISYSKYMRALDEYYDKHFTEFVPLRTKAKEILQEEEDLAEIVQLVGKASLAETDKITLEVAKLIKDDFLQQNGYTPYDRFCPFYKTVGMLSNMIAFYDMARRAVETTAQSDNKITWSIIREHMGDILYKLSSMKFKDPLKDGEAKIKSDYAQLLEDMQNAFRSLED
Chain of proteins of HEK293T cells transiently overexpressing caspase-6 (Homo sapiens, UniProt Q7KZF4) (Q7KZF4 whole entry): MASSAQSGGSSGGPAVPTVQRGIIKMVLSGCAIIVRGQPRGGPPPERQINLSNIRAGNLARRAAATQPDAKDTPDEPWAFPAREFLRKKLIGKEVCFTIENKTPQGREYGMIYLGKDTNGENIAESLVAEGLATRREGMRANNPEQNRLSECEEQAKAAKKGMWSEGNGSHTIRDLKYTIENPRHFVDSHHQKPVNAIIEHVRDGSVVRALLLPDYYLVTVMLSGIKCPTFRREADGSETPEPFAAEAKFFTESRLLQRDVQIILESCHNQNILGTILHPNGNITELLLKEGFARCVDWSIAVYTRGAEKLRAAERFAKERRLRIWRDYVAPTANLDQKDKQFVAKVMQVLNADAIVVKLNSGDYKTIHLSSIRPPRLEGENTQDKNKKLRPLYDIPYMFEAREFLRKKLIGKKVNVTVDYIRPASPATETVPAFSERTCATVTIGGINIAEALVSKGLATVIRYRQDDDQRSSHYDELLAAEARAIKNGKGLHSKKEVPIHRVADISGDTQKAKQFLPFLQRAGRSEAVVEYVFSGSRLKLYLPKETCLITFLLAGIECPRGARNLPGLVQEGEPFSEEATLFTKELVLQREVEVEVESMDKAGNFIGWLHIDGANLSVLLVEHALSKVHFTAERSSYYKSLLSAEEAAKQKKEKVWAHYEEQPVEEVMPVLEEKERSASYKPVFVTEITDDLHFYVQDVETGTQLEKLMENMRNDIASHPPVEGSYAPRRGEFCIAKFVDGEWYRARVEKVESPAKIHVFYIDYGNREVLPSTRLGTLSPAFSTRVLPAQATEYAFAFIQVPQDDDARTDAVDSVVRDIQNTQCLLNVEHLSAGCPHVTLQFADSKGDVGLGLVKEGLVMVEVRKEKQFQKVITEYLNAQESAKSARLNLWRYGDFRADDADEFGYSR
Chain of proteins of HEK293T cells transiently overexpressing caspase-6 (Homo sapiens, UniProt O43143) (O43143 whole entry): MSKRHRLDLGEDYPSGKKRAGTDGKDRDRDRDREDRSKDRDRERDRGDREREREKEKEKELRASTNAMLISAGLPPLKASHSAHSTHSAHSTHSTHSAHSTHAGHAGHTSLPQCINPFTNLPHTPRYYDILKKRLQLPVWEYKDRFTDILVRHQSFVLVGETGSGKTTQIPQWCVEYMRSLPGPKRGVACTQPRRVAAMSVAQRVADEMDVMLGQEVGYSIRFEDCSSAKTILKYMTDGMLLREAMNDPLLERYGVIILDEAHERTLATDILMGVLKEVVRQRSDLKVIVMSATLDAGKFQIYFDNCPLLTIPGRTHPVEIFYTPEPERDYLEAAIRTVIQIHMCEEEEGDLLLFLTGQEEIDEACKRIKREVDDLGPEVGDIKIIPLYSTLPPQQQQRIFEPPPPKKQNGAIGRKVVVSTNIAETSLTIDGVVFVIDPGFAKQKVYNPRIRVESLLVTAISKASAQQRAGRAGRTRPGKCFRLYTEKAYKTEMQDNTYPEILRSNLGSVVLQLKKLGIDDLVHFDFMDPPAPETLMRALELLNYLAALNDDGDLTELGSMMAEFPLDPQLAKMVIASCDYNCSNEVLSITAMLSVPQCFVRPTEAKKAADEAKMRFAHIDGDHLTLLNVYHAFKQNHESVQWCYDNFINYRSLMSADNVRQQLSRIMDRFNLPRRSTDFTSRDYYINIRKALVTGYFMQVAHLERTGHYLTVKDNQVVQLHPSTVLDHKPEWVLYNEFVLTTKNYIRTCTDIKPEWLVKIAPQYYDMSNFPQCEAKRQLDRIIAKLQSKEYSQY
Chain of proteins of HEK293T cells transiently overexpressing caspase-6 (Homo sapiens, UniProt O75874) (O75874 whole entry): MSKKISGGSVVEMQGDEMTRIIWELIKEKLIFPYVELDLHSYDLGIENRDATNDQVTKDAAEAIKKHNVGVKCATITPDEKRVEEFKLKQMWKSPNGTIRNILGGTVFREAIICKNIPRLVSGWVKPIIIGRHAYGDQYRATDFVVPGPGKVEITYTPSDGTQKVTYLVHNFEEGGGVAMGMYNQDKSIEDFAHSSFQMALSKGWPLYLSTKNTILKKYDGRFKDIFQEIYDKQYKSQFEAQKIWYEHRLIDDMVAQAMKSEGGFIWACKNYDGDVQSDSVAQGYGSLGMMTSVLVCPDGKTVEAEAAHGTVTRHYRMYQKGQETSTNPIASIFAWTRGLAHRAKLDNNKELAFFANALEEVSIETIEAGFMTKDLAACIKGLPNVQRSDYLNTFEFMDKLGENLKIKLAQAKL
Chain of proteins of HEK293T cells transiently overexpressing caspase-6 (Homo sapiens, UniProt O75390) (O75390 28-466): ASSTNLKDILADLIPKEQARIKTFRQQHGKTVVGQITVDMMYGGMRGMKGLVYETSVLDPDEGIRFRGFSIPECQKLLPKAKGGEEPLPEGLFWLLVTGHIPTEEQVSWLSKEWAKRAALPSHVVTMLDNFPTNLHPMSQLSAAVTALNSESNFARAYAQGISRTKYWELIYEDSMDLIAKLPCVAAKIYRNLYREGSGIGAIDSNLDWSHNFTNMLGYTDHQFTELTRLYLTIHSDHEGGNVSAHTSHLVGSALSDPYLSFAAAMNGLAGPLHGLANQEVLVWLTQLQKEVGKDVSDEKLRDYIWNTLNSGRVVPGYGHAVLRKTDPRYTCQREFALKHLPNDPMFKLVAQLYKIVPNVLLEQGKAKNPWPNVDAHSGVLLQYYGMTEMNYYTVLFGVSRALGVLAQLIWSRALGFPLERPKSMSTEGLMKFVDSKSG

C#CCOc1ccc([C@@H]2C[C@@H](C(=O)Nc3ccc(OC(F)(F)F)cc3)CN(S(=O)(=O)C=C)C2)cc1 (relative stereo) [13-t]
enrich.exp.med [1]: 0.7344
enrich.exp.med [2]: 0.5676
enrich.exp.med [3]: 0.2575
enrich.exp.med [4]: 0.4056
enrich.exp.med [5]: 0.1581
enrich.exp.med [6]: 0.1516
enrich.exp.med [7]: 0.1255
enrich.exp.med [8]: -1.073
enrich.exp.med [9]: 0.9081
enrich.exp.med [10]: -0.8445
enrich.exp.med [11]: -0.2162
enrich.exp.med [12]: 0.5675
enrich.exp.med [13]: 1.187
enrich.exp.med [14]: -0.4603
enrich.exp.med [15]: 1.9
enrich.exp.med [16]: -0.1003
enrich.exp.med [17]: 0.05791
enrich.exp.med [18]: -0.1126
enrich.exp.med [19]: 0.4413
enrich.exp.med [20]: -0.4498
